According to patent publication US11746103B2, “ALK-5 inhibitors and uses thereof” (Sumitomo Pharma Oncology, Inc., priority 2020, dated 2023):
pIC50: −log10 of the molar value.

Assays:
KGN cells (FOXL2 C134W) = assay: FOXL2 cell viability assay (Cell Titer Glo), KGN; assay type: cell-based, human
Description: (§1) EX-11 was submitted to a cell viability assay in KGN and COV434 cell lines. KGN cells are derived from FOXL2^C134W AGCT of a person with a recurrent metastatic GCT. COV434 cells are derived from FOXL2WT JGCT of a person with a recurrent metastatic GCT. The cells were seeded in triplicate in 96 well culture plates and treated with nine, 3-fold dilutions of EX-11 or DMSO for 6 days (KGN) or 3 days (Cov434), which represented 3 cell doublings, respectively. Viability was assessed by Cell Titer Glo (Promega).

EMT6 tumors [1] = assay: EMT6 syngeneic TNBC model
Description: The objective of this study was to evaluate preclinically the in vivo therapeutic efficacy of combining EX-11 with anti-PD-L1 and/or anti-PD-1 therapy for the treatment of EMT6 tumors orthotopically implanted in the mammary fat pad of female Balb/C mice.
Balb/C mice (aged 7-9 weeks) were inoculated orthotopically in the right mammary fat pad with EMT6 breast cancer cells (2.5×10^5) in 0.1 ml of PBS. Tumor measurements were performed via digital calipers. Once the mean tumor size reached approximately 85 mm^3 (day 11), 120 mice were randomized to 8 treatment arms (15 mice per arm).
The anti-PD-L1 inhibitor used in this study was a product of BioXcell (Cat #: BE0101, Clone #: 10F.9G2). The vehicle for the anti-PD-L1 inhibitor was PBS. The anti-PD-1 inhibitor used in this study was a product of BioXcell (Cat #: BE0146, Clone #: RMP1-14). The vehicle for the anti-PD-1 inhibitor was PBS. These inhibitors were injected intraperitoneally (i.p.), bi-weekly (BIW) for 3 weeks. The vehicle for EX-11 was NMP (10%)+20% Solutol in WFI (Water for Injection) (90%). The vehicle used for EX-11 was also used for the “Vehicle” arm of the study. EX-11 and the vehicle were delivered via oral gavage (p.o.), bi-daily (BID) for 21 days.
Body weights and tumor volumes were measured twice per week. Tumor volumes were measured in two dimensions using a caliper, and the volume was expressed in mm^3 using the formula: V=(L×W×W)/2, where V is tumor volume, L is tumor length (the longest tumor dimension) and W is tumor width (the longest tumor dimension perpendicular to L). Tumor Growth Inhibition (TGI) reported was TGI at the final study day, and is expressed as Mean % Δ Inhibition and was calculated using the following formula: [(C−C0)−(T−T0)/(C−C0)]*100%, where C refers to the tumor volume of the vehicle on the final study day, C0 to the tumor volume of the vehicle on the first day of dosing, T to the tumor volume of the treatment on a specific day of dosing and T0 to the tumor volume of the treatment group on the first day of dosing.
The first phase of the study was the dosing phase and was terminated at day 21, where 3 animals were sacrificed, and plasma and tumor samples were collected for biomarker analysis. The remaining 12 animals were monitored without dosing to determine mean survival.

[2] = tested on: COV434 cells (wild-type FOXL2); assay: FOXL2 cell viability assay (Cell Titer Glo), COV434; assay type: cell-based; settings: Homo sapiens, 72 h, 3 days
Description: as §1

[3] = tested on: bleomycin-induced lung fibrosis; assay: Bleomycin-induced lung fibrosis study; assay type: in vivo, mouse
Source text: Fibrosis, the formation of excess connective tissue causing stromal hardening and scar formation is a hallmark of cancer. Up to 20% of cancers are linked to chronic, inflammation-related fibrosis, including hepatocellular, gastric, esophageal, head and neck, colon, pancreatic, cervix, and vulvar cancers. The contribution of fibrosis for early cancer development remains unclear; however, in some advanced solid tumors it is believed that fibrotic tissues act like a barrier, preventing therapeutic agents like chemotherapy or biologics from penetrating the tumor tissue. Additionally, strong fibrotic tissue is thought to contribute to excluding immune cells from entering the tumor core, creating immune excluded or immune desert phenotypes. To evaluate the anti-fibrotic properties of Ex-11, a prophylactic model of bleomycin-induced lung fibrosis in male C57BL/6 mice was utilized, and various endpoints evaluated.
All mice in this study were 8-week-old male C57BL/6 mice purchased from Taconic. On Day −2 prior to bleomycin administration, all animals were weighed and distributed into groups with 10 mice each (Table 18) such that each group of animals contained animals of similar body weights.
On day 0, animals were treated with 1.5 U/kg bleomycin (Blenoxane catalog number NDC 61703-323-22, Hospira Pharmaceutical) intratracheally, except Group 1, which was administered normal saline via oropharyngeal route to serve as the healthy naïve control group. Prophylactic treatment was administered from one day prior to bleomycin administration to day 21 post bleomycin administration. On Day 21, only the morning dose was administered. Animals were harvested on day 21 and lung weights were measured. Body weights of all mice was recorded at least three times a week beginning on Day −2 and ending on the day of harvest, Day 21. Pirfenidone was used as positive control compound, as it is an FDA-approved drug for the treatment of idiopathic pulmonary fibrosis (IPF) in humans. All compounds were prepared in 10% Tween-20 in water; a homogenous suspension was formulated using a magnetic stir bar.
At the end of the study, total lung tissues were weighed and fixed for histological examination, which was conducted by a trained pathologist blinded to the treatment groups. Specifically, whole lungs from each mouse were paraffin-embedded in a single block. Two slides from each block were sectioned to the depth of the mainstem bronchi (near the center of each lobe) and stained with either hematoxylin and eosin (H&E) or Masson's trichrome (MT). Glass slides were evaluated using light microscopy by a board-certified veterinary pathologist. Lung sections were scored according to the methods described below, evaluating five randomly chosen fields in each tissue. Fixed lungs were sectioned, and consecutive tissue sections were stained with H&E or MT. Various pathological scoring parameters were used to determine the average Ashcroft score, as well as average inflammation and collagen deposition indicating fibrosis.
Parameter of scoring formalin fixed lung sections:
Modified Ashcroft Score: H&E-stained lung sections were scored according to the modified Ashcroft scale. Scores for five representative 200× microscopic fields per sample were averaged to obtain a mean score for each animal. […]

EMT6 tumors [4] = assay: Combination of EX-11 and abraxane in EMT6 TNBC syngeneic model; assay type: in vivo, mouse; settings: abraxane 30 mg/kg IP Q7d; EX-11 150 mg/kg PO BID
Source text: Abraxane (product of Bristol Myers Squibb) was purchased from St Josef Hospital (Freiburg, Germany). The vehicle for abraxane was 0.9% NaCl.

[5] = tested on: antigen presentation pathway (APP); assay: Nanostring differential gene expression analyses of 4T1, EMT6 and S91 tumors; assay type: in vivo, mouse; settings: 4T1, EMT6, S91 tumors
Source text: The objective of this study was to determine the differential gene expression (DGE) patterns of 4T1, EMT6, and S91 tumors treated with EX-11+immune checkpoint inhibitor (ICI), EX-11 alone, ICI alone, or vehicle control. For the purpose of this study, ICI=anti-PD-1 or anti-PD-L1, as indicated.
For NanoString assays, tumors from three syngeneic models of cancer were used:
RNA was isolated from the frozen tumors of ≥3 mice per group using the Direct-Zol RNA Miniprep (Zymo Research). The treatment arms and number of mice/tumors used for downstream applications is outlined in Table 17 (R=Responder, NS=Non-responder).
Equal concentrations of RNA for each tumor within each group were pooled. Two-hundred ng of RNA per group was used for downstream applications. Three separate NanoString nCounter panels were used per protocol: 1) Fibrosis, 2) PanCancer Pathways, 3) Immunology. RCC raw data files were uploaded into nCounter 4.0 software where counts were normalized to housekeeping genes. Gene lists in each panel were combined into a single spreadsheet for downstream analyses. For genes found in […], mean count values were used. RStudio software was used to generate heat maps of DGE signatures within each study for each group. Ingenuity Pathway Analysis (IPA) was used to identify the dysregulated signaling pathways within each study for each group.

4T1-luc tumors = assay: 4T1 syngeneic TNBC model; assay type: in vivo, mouse
Description: Tumor measurements were performed via digital calipers.
The vehicle for anti-PD-1 inhibitor was PBS.
The study dosing phase was 21 days. At the end of the study, animals were injected with luciferin, then sacrificed. Ex vivo imaging of the lung and liver tissue was performed to assess metastasis.

[6] = Description: Female, athymic nude mice (aged 6-8 weeks) were randomized to one of 12 study arms (n=3 per arm) (Table 16) and weighed prior to dosing. Mice were dosed via oral gavage either once daily (QD), or bi-daily (BID) for five days. […] The vehicle for PF-06952229 (PF) was 10% DMSO, 40% PEG300, 5% tween-80, 45% saline. For the vehicle alone group in this study, the PF-06952229 vehicle was used. At the end of each day for 10 days, mice were weighed, and symptoms of toxicity (if present) were recorded. A qualitative determination of overall toxicity was made based on the number and severity of symptoms for each cohort. The safety margin was determined at the end of day 10 based on the following equation: (maximum tolerated dose)/(minimum effective dose).
[7] = EX-11 at 75 mg/kg PO BID x 21 days
[8] = EX-11 at 150 mg/kg PO BID x 21 days

Q: For Cc1cccc2c(Nc3ccnc(Nc4cccc(N5CCOCC5)c4)n3)cnnc12 [EX-11, N4-(8-methylcinnolin-4-yl)-N2-(3-morpholinophenyl)pyrimidine-2,4-diamine], which “sensitivity of KGN cells relative to COV434 cells” value (KGN cells (FOXL2 C134W)) is on record?
A: > 70 fold

Q: What about the pIC50 (KGN cells (FOXL2 C134W); Homo sapiens, 144 h, KGN cells, 6 days) of the same molecule?
A: 6.85

Q: What about the “tumor growth inhibition (TGI) compared to vehicle” value (EMT6 tumors [1]; [7]) of the same molecule?
A: did not result in significant TGI

Q: And the “tumor growth inhibition (TGI) compared to vehicle” value (EMT6 tumors [1]; [8])?
A: 37%

Q: And the “Mean survival” value (EMT6 tumors [1]; EX-11 at 150 mpk where given)?
A: 25 days

Q: And the tumor pliability (EMT6 tumors [1]; all groups receiving EX-11 vs vehicle or checkpoint antibody single agent)?
A: substantially more pliable

Q: What about the pIC50 [2] of the same molecule?
A: < 5.00

Q: And the body weight loss ([3]; 75 mg/kg twice a day)?
A: No severe weight loss of over 5-10%

Q: What about the “average Ashcroft score” value ([3]; H&E, vs bleomycin/vehicle) of the same molecule?
A: highly statistically significant reduction in the average score

Q: And the “average lung inflammation score” value ([3]; H&E, vs bleomycin/vehicle)?
A: highly statistically significant reduction in the average score

Q: What about the “average lung fibrosis/collagen deposition score” value ([3]; Masson's trichrome, vs bleomycin/vehicle) of the same molecule?
A: highly statistically significant reduction in the average score

Q: And the “lung weight normalized to total animal weight (lung weight index)” value ([3]; day 21, vs bleomycin/vehicle)?
A: highly statistically significant

Q: What about the total lung weight ([3]; day 21, vs bleomycin/vehicle) of the same molecule?
A: significant decrease in lung weight

Q: And the “tumor volume compared to vehicle” value (EMT6 tumors [4])?
A: did not show efficacy compared to vehicle

Q: And the “antigen presentation pathway (APP) in tumors” value [5]?
A: upregulates the APP in tumors

Q: What about the “tumor growth inhibition (TGI) compared to vehicle” value (4T1-luc tumors; [7]) of the same molecule?
A: did not result in significant TGI

Q: And the “tumor growth inhibition (TGI) compared to vehicle” value (4T1-luc tumors; [8])?
A: 38%

Q: And the “ex vivo luminescence of liver (metastasis) compared to vehicle” value (4T1-luc tumors; EX-11 at 150 mg/kg where given)?
A: stronger reduction in luminescence

Q: What about the minimum effective dose ([6]; BID, based on prior studies with EX-11) of the same molecule?
A: 150 mg/kg

Q: And the “safety margin (maximum tolerated dose)/(minimum effective dose)” value ([6]; female, athymic nude, mouse, in vivo, 10 days)?
A: ≥ 6.7 fold
